Assay results reported in patent publication US20190269629A1, “COMPOSITIONS AND METHODS FOR INHIBITING GROWTH OF ACSL4-OVEREXPRESSING TUMORS” (CONSEJO NACIONAL DE INVESTIGACIONES CIENTÍFICAS Y TÉCNICAS …, priority 2016, published 2019).

Tests used:
Format in all cases: cell-based, human
[1] = tested on: MDA-MB-231 cells; test: BrdU cell proliferation assay, MDA-MB-231 cells; details: for inhibition of MDA-MB-231 cell proliferation (BrdU): Triacsin C 0.01-0.10 M and/or doxorubicin 0.025 μM or paclitaxel 0.1 μM, 96 h; for amount used in combination relative to the maximum effective dose when applied alone (same inhibitory effect) / dosage used in combination therapy relative to the minimum dose that produces a significant inhibition when administered alone: combination therapy; for dosage used in combination therapy relative to the minimum dose that produces a significant inhibition when administered alone: Triacsin C: in cell culture
Procedure: Subsequently, cell proliferation was measured by BrdU incorporation assay. Data arc presented as inhibition of cell proliferation compared to control cells. White bars indicate single inhibitor treatment while grey bars indicate combined inhibitor treatment.
MDA-MB-231 cells were plated as described in FIG. 3 and then incubated with Triacsin C ([…]) and/or A. doxorubicin (0.025 μM), B. paclitaxel (0.1 μM) for 96 h. Subsequently, cell proliferation was measured by BrdU incorporation assay. Data are presented as inhibition of cell proliferation compared to control cells. White bars indicate single inhibitor treatment while black bars indicate combined inhibitor treatment.
(§1) Cell proliferation assays were measured by the MTT and 5-bromo-2′-deoxyuridine (BrdU) incorporation as previously described (Maloberti P. M. et al., 2010).
(§2) MBA-MB-231 cells were plated at a density of 4000 cells/well in 96-well plates with 10% FBS-supplemented D-MEM medium and allowed to adhere overnight at 37° C. in a humidified, 5% CO2 atmosphere. The medium was then changed to serum-free medium. […] Subsequently, cell proliferation was measured by the bromo-deoxvuridine (BrdU) incorporation assay.
as §2, with “MDA-MB-231” for “MBA-MB-231”, “bromo-deoxyuridine” for “bromo-deoxvuridine”
(§3) MBA-MB-231 cells were plated at a density of 4000 cells/well in 96-well plates with 10% FBS-supplemented D-MEM medium and allowed to adhere overnight at 37° C. in a humidified, 5% CO2 atmosphere. The medium was then changed to serum-free medium. After 24 h, the cells were switched to 10% FBS-supplemented D-MEM medium and incubated with doxorubicin and/or Triacsin C for 96 h. Subsequently, cell proliferation was measured by the bromo-deoxyuridine (BrdU) incorporation assay.
as §3, with “MDA-MB-231 cells” for “MBA-MB-231 cells”, “C. m” for “C. in”, “24 h.” for “24 h,”, “with paclitaxel” for “with doxorubicin”, “the bromo-deoxvuridine” for “the bromo-deoxyuridine”

[2] = tested on: MCF-7 Tet-Off empty vector cells; test: BrdU cell proliferation assay, MCF-7 Tet-Off empty vector cells; details: doxorubicin 0.025, 0.050, 0.100 μM or paclitaxel 0.1, 0.2, 0.5 μM, 96 h
Procedure: (§4) MCF-7 Tet-Off empty vector and MCF-7 Tet-Off/ACSL4 cells were plated at a density of 4000 cells/well in 96-well plates with 10% FBS-supplemented D-MEM and allowed to adhere overnight at 37° C. in a humidified 5% CO2 atmosphere. The medium was then changed to serum-free medium. After 24 h, the cells were switched to 10% FBS-supplemented D-MEM with A. doxorubicin (0.025-0.100 μM) and B. paclitaxel (0.1-0.5 μM), and with doxycycline (0.025 μM) where indicated. After 48 h, cell proliferation was measured by BrdU incorporation assay. Data are presented as inhibition of cell proliferation compared to control cells.
as §1
Separate experiments were carried out for each one of the tested chemotherapeutic agents. […]
MCF-7 Tet-Off empty vector and MCF-7 Tet-Off/ACSL4 cells were plated at a density of 4000 cells/well in 96-well plates with 10% FBS-supplemented D-MEM medium and allowed to adhere overnight at 37° C. in a humidified, 5% CO2 atmosphere. […] Subsequently, cell proliferation was measured by the bromo-deoxyuridine (BrdU) incorporation assay. […]

[3] = tested on: MDA-MB-231 cells; test: BrdU cell proliferation assay, MDA-MB-231 cells; details: rosiglitazone 20 μM and/or doxorubicin 0.025 μM or paclitaxel 0.5 μM; 96 h
[4] = tested on: MCF-7 Tet-Off/ACSL4 cells; test: BrdU cell proliferation assay, MCF-7 Tet-Off/ACSL4 cells
Procedure: as §4, §1
Separate experiments were carried out for each one of the tested chemotherapeutic agents. Each chemotherapeutic agent was first tested alone at the concentrations used, and then in combination with doxycycline, for each of the cell groups: MCF-7 Tet-Off/ACSL4 cells, MCF-7 Tet-Off empty vector cells and doxycycline-treated MCF-7 Tet-Off/ACSL4 cells, the latter is used to specifically override ACSL4 expression.
as §3, with “MCF-7 Tet-Off empty vector and MCF-7 Tet-Off/ACSL4” for “MBA-MB-231”, “at varying (sub-therapeutically effective or non-effective per se) concentrations (0.025, 0.050, 0.100 μM)” for “and/or Triacsin C”
as §3, with “MCF-7 Tet-Off empty vector and MCF-7 Tet-Off/ACSL4” for “MBA-MB-231”, “paclitaxel at varying (sub-therapeutically effective or non-effective per se) concentrations (0.1, 0.2, 0.5 μM)” for “doxorubicin and/or Triacsin C”

[5] = tested on: ABCG2; test: Western blot of ABCG2 in MDA-MB-231 cells after ACSL4 inhibition; details: Triacsin C 1 uM or rosiglitazone 100 uM, 48 h
Description: (§5) A) MDA-MB-231 cells were transfected with the pSUPER.retro plasmid containing a shRNA targeted to ACSL4 (shRNA-ACSL4) or an empty plasmid (mock) as previously described ((Maloberti P. M. et al., 2010, supra).
(§6) One month post selection, whole cell extracts were obtained and analyzed by Western blot as previously described using the indicated antibodies. […] Forty-eight hours post-treatment, whole cell extracts were obtained and analyzed by Western blot as previously described using the indicated antibodies. Representative blots (upper panels) and integrated optical density of protein levels (lower panels) quantified and normalized with the corresponding 1-tubulin signal are shown.
(§7) J Biol Chem 2001; 276(27):24667-24673).
(§8) MDA-MB-231 cells were seeded the day before and grown up to 80% confluence. […] The empty vector was used as control. Transfection efficiency was estimated by counting fluorescent cells transfected with the pRc/CMVi plasmid containing the enhanced form of green fluorescent protein [Maloberti et al.; 2010].

[6] = tested on: ABCC4; test: Western blot of ABCC4 in MDA-MB-231 cells after ACSL4 inhibition; details: Triacsin C 1 uM or rosiglitazone 100 uM, 48 h
Description: as §5, §6, §7, §8

[7] = tested on: ABCC8; test: Western blot of ABCC8 in MDA-MB-231 cells after ACSL4 inhibition; details: Triacsin C 1 uM or rosiglitazone 100 uM, 48 h
Description: as §5, §6, §7, §8

[8] = MCF-7 Tet-Off/ACSL4 cells, doxorubicin 0.025, 0.050, 0.100 μM or paclitaxel 0.1, 0.2, 0.5 μM, 96 h
[9] = doxycycline-treated MCF-7 Tet-Off/ACSL4 cells, doxorubicin 0.025-0.100 μM or paclitaxel 0.1-0.5 μM

| Compound | inhibition of MDA-MB-231 cell proliferation (BrdU) [1] | amount used in combination relative to the maximum effective dose when applied alone (same inhibitory effect) [1] [times lower] | dosage used in combination therapy relative to the minimum dose that produces a significant inhibition when administered alone [1] | inhibition of cell proliferation (BrdU) [2] | inhibition of MDA-MB-231 cell proliferation (BrdU) [3] | inhibition of cell proliferation (BrdU) [4, 8] | inhibition of cell proliferation (BrdU) [4, 9] | ABCG2 protein levels [5] | ABCC4 protein levels [6] | ABCC8 protein levels [7] |
| --- | --- | --- | --- | --- | --- | --- | --- | --- | --- | --- |
| CC(=O)O[C@H]1C(=O)[C@@]2(C)[C@H]([C@H](OC(=O)c3ccccc3)[C@]3(O)C[C@H](OC(=O)[C@H](O)[C@@H](NC(=O)c4ccccc4)c4ccccc4)C(C)=C1C3(C)C)[C@]1(OC(C)=O)CO[C@@H]1C[C@@H]2O [paclitaxel] | very little effect | 5 | half | inhibited proliferation | very little effect | little or no effect | significantly increased inhibition of cell proliferation |  |  |  |
| CCC/C=C/C/C=C/C=C/C=NNN=O [Triacsin C, N-(((2E,4E,7E)-undeca-2,4,7-trienylidene)amino)nitrous amide] | very little effect |  | 5 times lower |  |  |  |  | markedly decreased | markedly decreased | markedly decreased |
| COc1cccc2c1C(=O)c1c(O)c3c(c(O)c1C2=O)C[C@@](O)(C(=O)CO)C[C@@H]3O[C@H]1C[C@H](N)[C@H](O)[C@H](C)O1 [doxorubicin] | very little effect | 12 | 2.6 times lower | inhibited proliferation | very little effect | very little or no effect | significantly increased inhibition of cell proliferation |  |  |  |
